Values joined by “and” are separate entries in the source; they are usually repeats but may differ in a detail not shown here. Identical values can stand only once. Like-named read-outs stand apart in the source and are kept apart here. Where a SMILES comes first, the peptide text is derived from it. The star is where a group is joined. Palmitoyl = CCCCCCCCCCCCCCCC(=O)*

The results in this text go back to article PMC9223764, “In Vitro Selection and Characterization of HIV-1 Variants with Increased Resistance to LP-40, Enfuvirtide-Based Lipopeptide Inhibitor” (International Journal of Molecular Sciences, 2022).

Holding throughout (assay type): cell-based
For assay [1], the system named is T20- and LP40-resistant mutant pseudoviruses of HIV-1 NL4-3. The conditions noted are these: for Largest decrease in susceptibility among LP-40-resistant strains / Largest decrease in susceptibility among T20-resistant strains / Decrease in sensitivity, range over strains / Decrease in sensitivity, range over mutants / Decrease in sensitivity: relative to WT. Here is the method: To simulate the sequence changes of viral resistance genes under different drug concentration pressures, we constructed the Env genes under different drug concentration pressures in the PCDNA3.1 vector and obtained a series of mutations. […] T20-V 6~12, T20-V 13~14, and T 20-V 15~18 were constructed at concentrations of 200 µM (P21), 400 µM (P24), and 2000 µM (P32), respectively. Similarly, the LP-40 pressure concentrations were 0.3 µM, 8 µM, 20 µM, and 200 µM, respectively, and the constructs were numbered LP40-V 1~5, LP40-V 6~8, LP40-V 9~11, and LP40-V 12~15. Resistance mutations will cause varying levels of damage to the function of the pseudoviral envelope proteins. Here, we explored how serial mutations affect the function of viral envelope proteins. Based on this problem, we performed a single round of quantitative P24-infection experiments, packaging the pseudovirus with a previously constructed series of mutant plasmids. We compared the invasion ability of the HIV-1 wild-type and mutant pseudoviruses toward target cells under the same P24 content (using the invasion capacity of each subtype as 100%).
The frequency of the T20-V8 strain was 1/12. From sequence alignment, except for the L33S, which appeared in all the sequences, the new mutation site of D36G/V38A/N42T was also introduced.
Among them, LP-40-inhibited LP40-V11 reached 3.3 µM. When the concentration of LP-40 rose to 200 µM, I37T disappeared, and L33S/D36G/V38A/N42T/I69V became the main mutation point.
The mutation G20V only appeared in T20-induced drug resistance, and the frequency was low. […] This mutation point N126K appeared in LP-40-induced drug resistance with a high frequency.
(§1) The infectivity of HIV Env mutants and the inhibitory activities of membrane fusion inhibitors on mutants in TZM-bl cells were measured using a single-cycle infection assay as described previously. Briefly, the HIV pseudovirus was packed using an Env-coding plasmid, and pSG3ΔEnv was co-transfected into HEK293T cells. pSG3ΔEnv encodes an Env-defective, luciferase-expressing HIV-1 genome. After the pseudoviruses were harvested and filtrated, the amount of pseudoviruses was fixed via P24 antigen, and their infectivity was determined in TZM-bl cells. In order to measure the inhibitory activities of the inhibitors, inhibitors diluted serially 3-fold were mixed with an equal volume of pseudoviruses, and then 100 µL 1 × 10^5/mL TZM-bl cells were added to the mixture and incubated at 37 °C with 5% CO2 for 48 h. After that, TZM-bl cells were lysed using reporter lysis buffer, and IC50 values were calculated according to luciferase activity measured by luciferase assay reagents and a luminescence counter (Promega, Madison, WI, USA).

Assay [2] deals with HIV-1 NL4-3 gp41 NDQEEDYN/L33S/I37T pseudovirus. The note with it: Table 3; for IC50: NDQEEDYN/L33S/I37T, TZM-bl cells, 48 h, luciferase, means, triplicate, repeated three times. On the procedure:
(§2) We selected LP-40-induced drug resistance typical point mutations and combination mutation pseudoviruses to evaluate the current representative membrane fusion inhibitors.
as §1

The subject of assay [3] is HIV-1 NL4-3 gp41 L33S/I37T pseudovirus. The note with it: Table 3; for IC50: L33S/I37T, TZM-bl cells, 48 h, luciferase, means, triplicate, repeated three times. Here is the method: as §2, §1
Assay [4] deals with HIV-1 NL4-3 gp41 V38A/N42T pseudovirus. The conditions noted are these: Table 3; for IC50: V38A/N42T, TZM-bl cells, 48 h, luciferase, means, triplicate, repeated three times. On the procedure:
as §2, §1

Assay [5] has as its system HIV-1 NL4-3 gp41 NDQEEDYN pseudovirus. The conditions noted are these: Table 3; for IC50: NDQEEDYN (E109N, N113D, E119Q, D121E, N125E, S129D, H132Y, S133N), TZM-bl cells, 48 h, luciferase, means, triplicate, repeated three times. Here is the method: as §2, §1
The subject of assay [6] is HIV-1 NL4-3 gp41 L33S/V38A/N42T pseudovirus. The note with it: Table 3; for IC50: L33S/V38A/N42T, TZM-bl cells, 48 h, luciferase, means, triplicate, repeated three times. Here is the method:
as §2, §1

Assay [7] relates to HIV-1 NL4-3 gp41 NDQEEDYN/L33S/V38A/N42T pseudovirus. The note with it: Table 3; for IC50: NDQEEDYN/L33S/V38A/N42T, TZM-bl cells, 48 h, luciferase, means, triplicate, repeated three times. Here is the method: as §2, §1
Assay [8] concerns HIV-1 NL4-3 gp41 L33S pseudovirus. The conditions noted are these: for Fold change in IC50: L33S relative to WT NL4-3; for IC50: L33S, TZM-bl cells, 48 h, luciferase, mean ± SD, triplicate, repeated three times. Here is the method: (§3) Viral RNA was extracted from the supernatant, and, after reverse transcription, the cDNA was amplified using PCR. These amplified DNA were connected to the T-Easy vector and transformed to Trans 2-Blue Chemically Competent Cells. These sequences were determined via sequencing. The expression plasmids, which contained different HIV-1NL4-3 Env mutants, were constructed using DNA assembly (NEBuilder® HiFi DNA Assembly Master Mix). In brief, two primers were used to amplify Env, and the other two primers were used to amplify the vector fragment. The products of PCR were purified with a 20–25 bp overlap in the terminal of Env and the vector fragment Env and the vector fragment were added to the DNA assembly master mix at […] for 15 min and then transformed to Trans 2-Blue Chemically Competent Cells. Additionally, a single-point mutation was generated using double-stranded DNA templates and a selection of mutants with a restriction enzyme (DpnI) as described previously.
as §1

The subject of assay [9] is HIV-1 NL4-3 gp41 I37T pseudovirus. The conditions noted are these: for Fold change in IC50: I37T relative to WT NL4-3; for IC50: I37T, TZM-bl cells, 48 h, luciferase, mean ± SD, triplicate, repeated three times. Here is the method: as §3, §1
The mark [10] stands for this setting: six point-mutant pseudoviruses L33S, I37T, V38A, V38T, N42T, N43S.
[11] abbreviates: six point-mutant pseudoviruses L33S, I37T, V38A, V38T, N42T, N43S, read-out: IC50, range over mutants.

For `CCCCCCCCCCCCCCCC(=O)NCCCC[C@H](NC(=O)[C@H](CC(=O)O)NC(=O)[C@H](CC(C)C)NC(=O)[C@H](CCC(=O)O)NC(=O)[C@H](CC(C)C)NC(=O)[C@H](CC(C)C)NC(=O)[C@H](CCC(=O)O)NC(=O)[C@H](CCC(N)=O)NC(=O)[C@H](CCC(=O)O)NC(=O)[C@H](CC(N)=O)NC(=O)[C@H](CCCCN)NC(=O)[C@H](CCC(=O)O)NC(=O)[C@H](CCC(N)=O)NC(=O)[C@H](CCC(N)=O)NC(=O)[C@H](CC(N)=O)NC(=O)[C@H](CCC(N)=O)NC(=O)[C@H](CO)NC(=O)[C@H](CCC(=O)O)NC(=O)[C@H](CCC(=O)O)NC(=O)[C@@H](NC(=O)[C@H](CC(C)C)NC(=O)[C@H](CO)NC(=O)[C@H](Cc1c[nH]cn1)NC(=O)[C@@H](NC(=O)[C@H](CC(C)C)NC(=O)[C@H](CO)NC(=O)[C@@H](NC(=O)[C@H](Cc1ccc(O)cc1)NC(C)=O)[C@@H](C)O)[C@@H](C)CC)[C@@H](C)CC)C(N)=O` [LP-40] (Ac-YTSLIHSLIEESQNQQEKNEQELLELDK(Palmitoyl)-NH2), the “Largest decrease in susceptibility among LP-40-resistant strains” value in assay [1] is reported as “over 227 fold”. Also, the “Largest decrease in susceptibility among T20-resistant strains” value in assay [1] was 227 fold. Further, the “Decrease in sensitivity, range over strains” value in [1] (first group of LP-40-resistant strains (LP40-V1, LP40-V2)) is 1.5–12.6 fold. The “Decrease in sensitivity, range over mutants” value in assay [1] (setting [10]) is reported as 6–111 fold. The concentration for half-maximal inhibition (IC50) in assay [1] (setting [11]) was 0.2 to 3.5 µM; in assay [1] (viral strains induced at LP-40 8 µM and 20 µM, read-out: IC50, range over strains), 2.8 to 3.3 µM; in assay [2], 3.28 µM; in [3] it was 2.98 µM; in [4], 4.07 µM; in [5] it was 0.1 µM. Besides, the IC50 in assay [6] was 4.99 µM; in assay [7], greater than 6.25 µM; in assay [8] (Table 2), 2.12 ± 0.534 µM; in assay [9] (Table 2), 0.515 ± 0.0743 µM. The Decrease in sensitivity entry in [1] (strains induced at LP-40 200 µM) is listed as “over 227 fold”; in assay [1] (viral strains induced at LP-40 8 µM and 20 µM), “more than 92 fold”. For the same compound, the “Fold change in IC50” value in assay [2] (NDQEEDYN/L33S/I37T relative to WT NL4-3) is 120.00 fold; in [3] (L33S/I37T relative to WT NL4-3), 109.04 fold; in [4] (V38A/N42T relative to WT NL4-3) it was 149.15 fold; in [5] (NDQEEDYN relative to WT NL4-3), 3.67 fold; in assay [6] (L33S/V38A/N42T relative to WT NL4-3), 182.67 fold; in assay [7] (NDQEEDYN/L33S/V38A/N42T relative to WT NL4-3), greater than 228.77 fold. Further, the “Fold change in IC50” value is 67 fold and 67.08 fold in assay [8] (Table 2); 77.43 fold in assay [8] (Table 3); 16.33 fold in [9] (Table 2); 18.85 fold in assay [9] (Table 3).
Regarding Enfuvirtide, the “Largest decrease in susceptibility among LP-40-resistant strains” value in assay [1] amounted to 107 fold. Besides, the “Largest decrease in susceptibility among T20-resistant strains” value in [1] is reported as “up to 112 fold”. Moreover, the “Decrease in sensitivity, range over mutants” value in assay [1] (setting [10]) is 6–51 fold. Further, the IC50 in assay [1] (setting [11]) is 0.41 to 3.4 µM; in assay [1] (viral strains induced at T20 200 µM, read-out: IC50, range over strains) it was 2.8 to 5.3 µM; in assay [2] it was 3.79 µM; in assay [3], 5.85 µM; in assay [4], 3.35 µM; in [5], 0.0625 µM. The concentration for half-maximal inhibition (IC50) in assay [6] was 4.92 µM; in assay [7] it was 4.78 µM; in assay [8] (Table 2), 3.45 ± 0.564 µM; in assay [9] (Table 2), 0.711 ± 0.157 µM. In addition, the “Decrease in sensitivity, range over strains” value in assay [1] (strains induced at T20 2000 µM) was 32- to 112 fold; in assay [1] (virus strain induced at T20 12 µM), “one- to two”. Besides, the Decrease in sensitivity result in [1] (viral strains induced at T20 200 µM) is recorded as “more than 50 fold”.
